Patent publication US8648113B2, “Mixture and compounds from mycelia of Antrodia camphorata and use thereof” (Simpson Biotech Co., Ltd., priority 2004, dated 2014)
“And” between values parts separate entries of the source, which are not always exact repeats. Equal values may be shown once. Read-outs that look alike come from different tables or passages of the source.

Tests used:
[1] = tested on: LLC (Lewis lung carcinoma) cell line
[2] = tested on: LLC (Lewis lung carcinoma) cell line; assay: Cytotoxic assay, in vitro LLC tumor cell assay (SRB method); conditions: for 50% Growth Inhibition (ED50): SRB method
[3] = tested on: spontaneously hypertensive rats (SHR); conditions: 0.1 mg/kg PO, Ave. of 3 rats (Tables 7 and 9: two experiments)
Method: Blood pressure and heart rate were recorded indirectly by tail cuff method in a temperature controlled environment (32±1° C.) before (0 time) and 1, 2 and 4 hours after oral administration of test substance or vehicle. A reduction in systolic pressure by 10 percent or more (>10%), or decrease in heart rate by 20 percent or more (≧20%), at each measured time interval relative to 0 time, is considered significant.
Blood pressure was recorded indirectly vial tail cuff at 0 time (before) and 1, 2 and 4 hours after oral administration of vehicle or test substance. A reduction in blood pressure by 10 percent or more (10%), or decrease in heart rate by 20 percent or more (≧20%) at each measurement time point relative to 0 time, shown in parenthesis, is considered significant.

[4] = tested on: SW620: human colon adenocarcinoma; assay: Tumor assay of ACM, MTT method, SW620; format: cell-based; conditions: 4 days
From the text: (§1) Tumor Assay of ACM (Antrodia camphorata Mycelia Powder) A. Cell Line • Adherent Cell • MCF-7: human breast carcinoma • HT-29: human colon adenocarcinoma • KATO III: human stomach carcinoma • SW480: human colon adenocarcinoma • SW620: human colon adenocarcinoma • HepG2: human liver carcinoma • Suspension Cell • EL4: mice lymphoma B. Samples • Compound 1, Compound 3, ACM EtOH Extract, ACM H2O Extract C. Assay Method • Calculate ED50 (50% inhibition of effective dose) • Adherent cell: MTT (methyl thiazolyl tetrazolium) method for MCF-7, HT-29, KATO III, SW480, HepG2, cells are determined at 3 days. SW620 at 4 days • Suspension cell: Cell count method; EL4 cells count at 5 days D. Result Calculation: y=m Ln(x)+b
(§2) Use value of X (10, 30, 50 ppm) and Y to get correlation curve y=−0.2643 Ln(x)+1.5321 ED50=exp[0.97/2−1.5321/(−0.2643)] Sample Preparation and Sample Description A. ACM (Antrodia Camphorata Mycelia Powder) H2O Extract 1. Add 1 g of ACM into 40 ml of RO H2O in a 250 ml beaker, put the beaker in ultrasonic water bath for 20 min at room temperature 2. Stir at 45° C. water bath for 45 min 3. Place the beaker in ultrasonic water bath for another 20 min 4. Centrifuge the sample at 3000 rpm for 15 min 5. Collect supernatant and perform serial dilutions with media B. Determination of Sample Concentration 1. […] Read at OD545 on Elisa reader Cell Count Method (EL4 Cell Line) 1. […]

[5] = tested on: HT-29: human colon adenocarcinoma; assay: Tumor assay of ACM, MTT method, HT-29; format: cell-based; conditions: 3 days
From the text: as §1, §2

[6] = tested on: HepG2: human liver carcinoma; assay: Tumor assay of ACM, MTT method, HepG2; format: cell-based; conditions: 3 days
From the text: as §1, §2

[7] = tested on: MCF-7: human breast carcinoma; assay: Tumor assay of ACM, MTT method, MCF-7; format: cell-based; conditions: 3 days
From the text: as §1, §2

[8] = tested on: KATO III: human stomach carcinoma; assay: Tumor assay of ACM, MTT method, KATO III; format: cell-based; conditions: 3 days
From the text: as §1, §2

[9] = tested on: EL4: mice lymphoma; assay: Tumor assay of ACM, cell count method, EL4; format: cell-based; conditions: 5 days
From the text: as §1, §2

[10] = tested on: ICR derived male mice, carbon tetrachloride induced hepatic injury; assay: Hepatic Injury, Carbon Tetrachloride, in Mice; format: in vivo, mouse; conditions: for ALT, group mean (X) / AST, group mean (X) / ALT, individual animal / AST, individual animal: CCl4-challenged ICR mice; for ALT, group mean (X) / AST, group mean (X): mean of 5; for ALT, individual animal / AST, individual animal: single animals N 1-5, 24 h after CCl4; for ALT Dec. % / AST Dec. %: decrease relative to vehicle group, brackets = 30% or greater
Method: Nine groups of ICR derived male mice (weighing 22±2 g) of 5 each were used. Each animals was challenged with a single dose of carbon tetrachloride (CCl4, 0.1 ml/kg in 50% olive oil, PO). […] The animals were sacrificed 24 hours after CCl4. Alanine aminotransferase (ALT) and Aspartate aminotransferase (AST) levels were measured by optimized UV method using a HITACHI automatic analyzer (model 7050). A reduction of ALT or AST levels by 30 percent or greater (30%), relative to the vehicle group, indicating significant protection from hepatic injury.
The test substance of ACM at doses 300 and 1000 mg/kg and compound 3 of the invention at doses 30, 100 and 300 mg/kg were administered orally to test animals 0.5 hour before and 4, 8 hours after CCl4 challenge. […] The degree of hepatic injury was determined by increase in serum alanine aminotransferase (ALT) and aspartate aminotransferase (AST) levels relative to the vehicle treated animals. ACM at 1000 mg/kg×3 and compound 3 of the invention at 300 mg/kg×3 caused a significant reduction of ALT (46% and 41%) and AST (36% and 33%) relative to the vehicle treated animals.

[11] = tested on: SW480: human colon adenocarcinoma; assay: Tumor assay of ACM, MTT method, SW480; format: cell-based; conditions: 3 days
From the text: as §1, §2

CC(C)=CCOc1ccc([C@H]2C(=O)N(O)C(=O)[C@@H]2CC(C)C)cc1 (relative stereo) [Compound 4, 3R*,4S*-1-Hydroxy-3-isobutyl-4-[4-(3-methyl-2-butenyloxy)phenyl]pyrrolidine-2,5-dione]
cytotoxic activity (in words) [1]: no cytotoxic activity
50% Growth Inhibition (ED50) [2]: >10 µg/mL

Clc1cccc(Cl)c1N=C1NCCN1 [Clonidine]
Heart Rate % Control (from 0 times), 2 Hours [3]: 90% and 86%
Heart Rate % Control (from 0 times), 4 Hours [3]: 98% and 102%

CC(C)=CCOc1ccc(C2=C(CC(C)C)C(=O)OC2=O)cc1 [Compound 1, 3-Isobutyl-4-[4-(3-methyl-2-butenyloxy)phenyl]furan-2,5-dione]
ED50 [4]: 15 ppm
ED50 [5]: 52 ppm
ED50 [6]: 21 ppm
ED50 [7]: 6 ppm
cytotoxic activity (in words) [2]: no cytotoxic activity
50% Growth Inhibition (ED50) [2]: >20 µg/mL
ED50 [8]: 38 ppm
ED50 [9]: 3.5 ppm

CC(C)=CCOc1ccc(C2=C(CC(C)C)C(=O)N(O)C2=O)cc1 [Compound 3, 3-Isobutyl-4-[4-(3-methyl-2-butenyloxy)phenyl]-1H-pyrrol-1-ol-2,5-dione]
ED50 [4]: 27 ppm
ED50 [5]: 42 ppm
ED50 [6]: 35 ppm
ED50 [7]: 0.02 ppm
reduction of ALT relative to the vehicle treated animals ([10]; CCl4 mice, 300 mg/kg×3 PO): 41%
reduction of AST relative to the vehicle treated animals ([10]; CCl4 mice, 300 mg/kg×3 PO): 33%
ALT, group mean (X) ([10]; PO 30 mg/kg × 3): 3360 U/L
AST, group mean (X) ([10]; PO 30 mg/kg × 3): 1962 U/L
ALT, individual animal ([10]; PO 30 mg/kg × 3): 4296 U/L and 3696 U/L and 2152 U/L and 2400 U/L and 4256 U/L
AST, individual animal ([10]; PO 30 mg/kg × 3): 2136 U/L and 2288 U/L and 1096 U/L and 1792 U/L and 2496 U/L
ALT Dec. % ([10]; PO 30 mg/kg × 3): −1%
AST Dec. % ([10]; PO 30 mg/kg × 3): −16%
ALT, group mean (X) ([10]; PO 100 mg/kg × 3): 3342 U/L
AST, group mean (X) ([10]; PO 100 mg/kg × 3): 1984 U/L
ALT, individual animal ([10]; PO 100 mg/kg × 3): 3200 U/L and 4576 U/L and 2512 U/L and 2728 U/L and 3696 U/L
AST, individual animal ([10]; PO 100 mg/kg × 3): 2256 U/L and 2976 U/L and 1536 U/L and 1552 U/L and 1600 U/L
ALT Dec. % ([10]; PO 100 mg/kg × 3): 0%
AST Dec. % ([10]; PO 100 mg/kg × 3): −17%
ALT, group mean (X) ([10]; PO 300 mg/kg × 3): 1966 U/L
AST, group mean (X) ([10]; PO 300 mg/kg × 3): 1130 U/L
ALT, individual animal ([10]; PO 300 mg/kg × 3): 1368 U/L and 1576 U/L and 1440 U/L and 2728 U/L and 2720 U/L
AST, individual animal ([10]; PO 300 mg/kg × 3): 776 U/L and 896 U/L (2×) and 1352 U/L and 1728 U/L
ALT Dec. % ([10]; PO 300 mg/kg × 3): (41) %
AST Dec. % ([10]; PO 300 mg/kg × 3): (33) %
cytotoxic activity (in words) [2]: cytotoxic
50% Growth Inhibition (ED50) [2]: 7.5 µg/mL
ED50 [8]: 69 ppm
ED50 [9]: 2.6 ppm
ED50 [11]: 20 ppm
